Measured values from patent US9498460B1, “Halogenated tetracyclic compounds” (KING SAUD UNIVERSITY, priority 2016, dated 2016).
In brackets after ≈: the same amount, converted by molar mass.

Experiments:
[1] = system: hepatocellular carcinoma HepG2 cell line; experiment: MTT growth inhibition, HepG2; format: cell-based; details: for IC50: Homo sapiens, MTT test, 96-well plate, serial dilution, spread in brackets; for sensitivity of treated cancer cells, times higher: comparator not stated
Description: (§1) Growth inhibitions were measured in 96-well plates. Aliquots of 120 μL of the suspended cells (50,000 mL^−1) were given to 60 μL of a serial dilution of the inhibitor (S). After 5 days of incubations, growths were determined the MTT assay (MTT=3-(4,5-dimethylthiazol-2-yl)-2,5-diphenyltetrazolium bromide). Briefly, 20 μl MTT (5 mg/mL in PBS) were added to each well, and the plates were incubated for 2 h at 37° C., and 5% CO2-atmosphere in the cell incubator. The supernatants were then discarded and 200 μl of isopropanol/HCl were added to each well and mixed to dissolve the formazan crystals. The absorbance was then read at 550 nm using a microplate reader (Thermo Scientific, USA). The viability of the cells was calculated by dividing the absorbance average of the treated cells by the absorbance average of the control cells multiply 100%. […] The activities of the cells were plotted against the concentration of the drugs, and the IC50 values were calculated from the regression curve.
(§2) The cancer cell lines were incubated with serial dilution of each compound (from 313 pg ML^−1 to 5 mg ML^−1) in a 96-well plate for 4 days, and then tested for growth inhibition by MTT-Test.

[2] = system: lung carcinoma cell line A549; experiment: MTT growth inhibition, A549; format: cell-based; details: for IC50: Homo sapiens, A549, MTT test, 96-well plate, serial dilution, spread in brackets; for sensitivity of treated cancer cells, times higher: cell line printed as A459, comparator not stated
Description: as §1, §2

[3] = system: colorectal carcinoma HTC-116 cell line; experiment: MTT growth inhibition, HTC-116 (HCT 116); format: cell-based; details: for IC50: Homo sapiens, HCT-116, MTT test, 96-well plate, serial dilution, spread in brackets; for growth inhibition of third cell line (HCT): result in words
Description: as §1
The cancer cell lines were incubated with serial dilution of each compound (from 313 pg ML^−1 to 5 mg ML^−1) in a 96-well plate for 4 days, and then tested for growth inhibition by MTT-Test. […] Replacing the formyl groups of the two compounds with amino groups (Sub. 6 and Sub. 7) caused remarkable decreasing of cells sensitivities, and accordingly increasing of IC50 values of the two derivatives as shown in table 2. […] Moreover, the sensitivities of the treated cancer cells to 4 and 5 were 6 times higher in case of the […] cell line A459, and even 40 times higher in case of hepatocyte carcinoma cell line HepG2.

[4] = system: Burkitts Lymphoma (BL) cell lines DG-75; details: does not involve caspases, DNA fragmentation or PARP cleavage; cited from earlier work

IC50 [1] | IC50 [2] | IC50 [3] | melting point | SMILES | sensitivity of treated cancer cells, times higher [1] | sensitivity of treated cancer cells, times higher [2] | growth inhibition of third cell line (HCT) [3] | in vitro antiproliferative activity against DG-75 [4]
0.12 µg/mL (≈ 0.396 µM) | 1.1 µg/mL (≈ 3.63 µM) | 0.4 µg/mL (≈ 1.32 µM) |  | O=CC1CC2c3cccc(Cl)c3C1c1c(Cl)cccc12 (stereo not shown) [Compound 4, 4,5-dichloro-9,10-dihydro-9,10-ethanoanthracene-11-carbaldehyde] | 40 times | 6 times | able to inhibit the growth | 
0.65 µg/mL (≈ 2.14 µM) | 3.71 µg/mL (≈ 12.2 µM) | 0.7 µg/mL (≈ 2.31 µM) |  | O=CC1CC2c3c(Cl)cccc3C1c1cccc(Cl)c12 (stereo not shown) [Compound 5, 1,8-dichloro-9,10-dihydro-9,10-ethanoanthracene-11-carbaldehyde] | 40 times | 6 times | able to inhibit the growth | 
12.7 µg/mL (≈ 39.8 µM) | 25.5 µg/mL (≈ 80.1 µM) |  | 290 °C | CNCC1CC2c3cccc(Cl)c3C1c1c(Cl)cccc12 (stereo not shown) [Compound 6, 1-(4,5-dichloro-9,10-dihydro-9,10-ethanoanthracen-11-yl)-N-methylmethanamine] |  |  |  | 
13.8 µg/mL (≈ 43.4 µM) | 18.9 µg/mL (≈ 59.4 µM) |  | 310 °C | CNCC1CC2c3c(Cl)cccc3C1c1cccc(Cl)c12 (stereo not shown) [Compound 7, 1-(1,8-dichloro-9,10-dihydro-9,10-ethanoanthracen-11-yl)-N-methylmethanamine] |  |  |  | 
 |  |  |  | CNCCCC12CCC(c3ccccc31)c1ccccc12 [Maprotiline, 9,10-dihydro-N-methyl-9,10-ethanoanthracene-9-propanamine] |  |  |  | antiproliferative agent
